Experimental data taken from patent US20230295130A1, “COMPOUND USEFUL AS CDK7 KINASE INHIBITOR AND USE THEREOF” (TYK MEDICINES, INC., priority 2020, published 2023).

Experiments:
Test in all cases: Enzyme activity test, mobility shift assay (Table 1)
Format in all cases: biochemical
CDK2/Cyclin El = CDK2/Cyclin El (Homo sapiens (Human), UniProt P24941); conditions: 2 mM ATP; read-out: CDK2 kinase IC50
Description: (§1) The compound powder was dissolved in 100% DMSO to prepare a 10 mM storage solution. The storage solution was further diluted to 0.5 mM as the initial concentration, and continuously diluted 3 times to obtain 10 compound solutions with different concentrations. The compound and enzyme were pre-incubated for 0 minutes and 60 minutes, respectively, using duplicate detection.
(§2) was used as a positive control, and Mobility shift assay method was used to detect CDK kinase (such as CDK7, CDK9, CDK12 and CDK2) activity of the compounds.

CDK9/Cyclin Tl = CDK9/Cyclin Tl (Homo sapiens (Human), UniProt P50750); conditions: 2 mM ATP; read-out: CDK9 kinase IC50
Description: as §1, §2

[1] = molecular target: CDK12 (aa686-1082)/Cyclin K (Homo sapiens (Human), UniProt Q9NYV4); conditions: 2 mM ATP; read-out: CDK12 kinase IC50
Description: as §1, with “detection. Compound Staurosporine having a structural formula of” for “detection.”
as §2

[2] = molecular target: CDK7/Cyclin H/MAT1 kinase (Homo sapiens (Human), UniProt P50613); conditions: 2 mM ATP; pre-incubated 0 and 60 minutes
Description: IC50 values of the compounds for CDK7 kinase were detected in Wuxi Biortus Biosciences Co. Ltd.
as §1, §2

Sequence of CDK7/Cyclin H/MAT1 kinase (P50613 whole entry): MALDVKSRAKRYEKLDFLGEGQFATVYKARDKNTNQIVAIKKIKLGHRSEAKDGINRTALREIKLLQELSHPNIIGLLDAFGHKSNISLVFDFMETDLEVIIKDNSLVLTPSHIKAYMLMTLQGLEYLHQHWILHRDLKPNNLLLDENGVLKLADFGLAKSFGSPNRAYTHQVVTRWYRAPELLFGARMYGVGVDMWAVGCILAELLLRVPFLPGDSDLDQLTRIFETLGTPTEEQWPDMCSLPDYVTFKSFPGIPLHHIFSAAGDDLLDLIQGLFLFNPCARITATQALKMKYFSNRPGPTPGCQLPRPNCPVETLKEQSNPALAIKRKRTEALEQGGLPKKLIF
Sequence of CDK7/Cyclin H/MAT1 kinase (P51946 whole entry partner): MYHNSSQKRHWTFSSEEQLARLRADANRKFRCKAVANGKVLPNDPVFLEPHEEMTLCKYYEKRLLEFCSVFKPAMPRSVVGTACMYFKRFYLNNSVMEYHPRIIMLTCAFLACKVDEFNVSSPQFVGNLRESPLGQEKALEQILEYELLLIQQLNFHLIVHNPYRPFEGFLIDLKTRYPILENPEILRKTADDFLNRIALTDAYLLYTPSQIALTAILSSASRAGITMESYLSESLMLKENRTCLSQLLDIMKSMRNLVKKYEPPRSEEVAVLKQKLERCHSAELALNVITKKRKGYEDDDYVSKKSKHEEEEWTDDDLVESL
Sequence of CDK7/Cyclin H/MAT1 kinase (P51948 whole entry partner): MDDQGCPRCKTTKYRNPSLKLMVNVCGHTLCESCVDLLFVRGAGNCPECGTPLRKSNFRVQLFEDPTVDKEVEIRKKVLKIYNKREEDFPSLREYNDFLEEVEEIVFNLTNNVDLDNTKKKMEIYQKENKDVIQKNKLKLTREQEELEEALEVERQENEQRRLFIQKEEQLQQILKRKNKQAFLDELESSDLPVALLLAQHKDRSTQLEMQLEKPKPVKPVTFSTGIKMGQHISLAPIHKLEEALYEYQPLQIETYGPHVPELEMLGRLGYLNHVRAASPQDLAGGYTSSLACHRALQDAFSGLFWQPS
Sequence of CDK9/Cyclin Tl (P50750 whole entry): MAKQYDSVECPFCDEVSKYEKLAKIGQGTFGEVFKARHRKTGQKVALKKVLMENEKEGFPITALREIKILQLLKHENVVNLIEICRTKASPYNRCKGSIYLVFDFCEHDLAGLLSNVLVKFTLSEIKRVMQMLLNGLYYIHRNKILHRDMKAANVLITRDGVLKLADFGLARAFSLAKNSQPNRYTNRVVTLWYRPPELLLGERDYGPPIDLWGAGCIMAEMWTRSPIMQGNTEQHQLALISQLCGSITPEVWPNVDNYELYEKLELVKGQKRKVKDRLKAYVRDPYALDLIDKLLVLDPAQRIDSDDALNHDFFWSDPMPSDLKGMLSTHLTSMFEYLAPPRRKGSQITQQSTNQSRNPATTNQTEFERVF
Sequence of CDK9/Cyclin Tl (O60563 whole entry partner): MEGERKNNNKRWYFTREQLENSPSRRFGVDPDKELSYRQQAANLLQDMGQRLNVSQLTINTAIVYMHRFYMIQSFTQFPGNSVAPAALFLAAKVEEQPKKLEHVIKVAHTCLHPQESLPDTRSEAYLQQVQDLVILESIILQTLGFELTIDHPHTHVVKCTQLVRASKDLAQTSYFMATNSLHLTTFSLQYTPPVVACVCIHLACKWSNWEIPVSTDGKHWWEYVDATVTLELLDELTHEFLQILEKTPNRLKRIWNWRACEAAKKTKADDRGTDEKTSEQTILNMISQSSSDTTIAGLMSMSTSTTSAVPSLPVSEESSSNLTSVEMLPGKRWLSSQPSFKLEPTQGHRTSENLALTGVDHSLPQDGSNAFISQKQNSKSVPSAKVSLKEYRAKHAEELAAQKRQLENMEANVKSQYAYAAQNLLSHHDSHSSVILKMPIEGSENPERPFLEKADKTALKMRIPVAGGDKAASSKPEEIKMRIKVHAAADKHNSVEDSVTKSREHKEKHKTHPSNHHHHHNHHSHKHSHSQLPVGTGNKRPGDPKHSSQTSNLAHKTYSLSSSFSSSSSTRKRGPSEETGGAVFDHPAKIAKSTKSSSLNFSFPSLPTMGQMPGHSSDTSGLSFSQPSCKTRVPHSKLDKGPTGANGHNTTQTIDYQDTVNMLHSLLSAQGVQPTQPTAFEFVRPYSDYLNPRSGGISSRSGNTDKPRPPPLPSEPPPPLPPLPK
Sequence of CDK12 (aa686-1082)/Cyclin K (Q9NYV4 686-1082): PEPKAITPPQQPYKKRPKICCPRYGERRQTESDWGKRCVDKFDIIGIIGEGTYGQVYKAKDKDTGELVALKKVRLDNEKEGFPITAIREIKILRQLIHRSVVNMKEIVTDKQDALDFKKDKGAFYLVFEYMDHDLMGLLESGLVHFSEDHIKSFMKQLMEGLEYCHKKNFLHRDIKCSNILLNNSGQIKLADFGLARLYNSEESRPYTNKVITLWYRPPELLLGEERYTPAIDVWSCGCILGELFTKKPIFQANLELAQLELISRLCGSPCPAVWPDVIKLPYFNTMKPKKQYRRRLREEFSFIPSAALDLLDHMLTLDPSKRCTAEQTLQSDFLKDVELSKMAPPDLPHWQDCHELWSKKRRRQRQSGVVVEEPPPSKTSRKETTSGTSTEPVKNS
Sequence of CDK12 (aa686-1082)/Cyclin K (O75909 whole entry partner, the tested form may be a part): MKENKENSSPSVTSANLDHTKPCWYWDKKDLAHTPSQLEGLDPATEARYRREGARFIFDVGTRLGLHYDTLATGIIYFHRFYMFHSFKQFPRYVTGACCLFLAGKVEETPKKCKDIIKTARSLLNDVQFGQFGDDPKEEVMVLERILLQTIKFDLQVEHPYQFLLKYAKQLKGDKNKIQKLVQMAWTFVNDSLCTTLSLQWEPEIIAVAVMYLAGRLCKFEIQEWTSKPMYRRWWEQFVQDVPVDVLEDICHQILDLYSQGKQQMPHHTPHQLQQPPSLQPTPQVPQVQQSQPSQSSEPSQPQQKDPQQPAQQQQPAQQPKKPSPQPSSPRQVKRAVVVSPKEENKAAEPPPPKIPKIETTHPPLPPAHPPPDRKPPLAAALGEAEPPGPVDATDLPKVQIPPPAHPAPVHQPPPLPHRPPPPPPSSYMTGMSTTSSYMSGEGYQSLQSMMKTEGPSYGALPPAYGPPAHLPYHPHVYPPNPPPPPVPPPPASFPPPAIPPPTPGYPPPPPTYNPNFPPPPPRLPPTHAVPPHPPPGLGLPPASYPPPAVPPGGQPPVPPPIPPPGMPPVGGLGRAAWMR

Row | SMILES | IC50 (CDK2/Cyclin El) [nM] | IC50 (CDK9/Cyclin Tl) [nM] | IC50 [1] [nM] | IC50 [2] [nM]
1 | COC(=O)Nc1ccc2c(-c3nc(N[C@H]4CCCNC4)ncc3C(F)(F)F)c[nH]c2c1C1COC1 [Example T-84] | > 500 | > 500 | > 500 | < 50
2 | COC(=O)Nc1ccc2c(-c3nc(N[C@H]4CCC(C)(C)NC4)ncc3Cl)c[nH]c2c1OCC(F)(F)F [Example T-85] | > 500 | > 500 | > 500 | < 50
3 | COC(=O)Nc1ccc2c(-c3nc(N[C@H]4CCC(C)(C)NC4)ncc3Cl)c[nH]c2c1CC(F)(F)F [Example T-86] | > 500 | > 500 | > 500 | < 50
4 | COC(=O)Nc1ccc2c(-c3nc(N[C@H]4CCCNC4)ncc3Cl)c[nH]c2c1C(F)(F)F [Example T-88] | > 500 | > 500 | > 500 | < 50
5 | COC(=O)Nc1ccc2c(-c3nc(N[C@H]4CCC(C)(C)NC4)ncc3Cl)c[nH]c2c1OC(F)(F)F [Example T-96] | > 500 | > 500 | > 500 | < 50
6 | COC(=O)Nc1ccc2c(-c3nc(N[C@H]4CCC5(CC5)NC4)ncc3C(F)(F)F)c[nH]c2c1C(F)(F)F [Example T-100] | > 500 | > 500 | > 500 | < 50
7 | COC(=O)N(C)c1ccc2c(-c3nc(N[C@H]4CCCNC4)ncc3C(F)(F)F)c[nH]c2c1Br [Example T-102] | > 500 | > 500 | > 500 | < 50
8 | COC(=O)Nc1ccc2c(-c3nc(N[C@H]4CCC(C)(C)NC4)ncc3C(F)(F)F)c[nH]c2c1C1CC1(F)F (some centres unmarked) [Example T-105] | > 500 | > 500 | > 500 | < 50
9 | COC(=O)Nc1ccc2c(-c3nc(N[C@H]4CCC(C)(C)NC4)ncc3C(F)(F)F)c[nH]c2c1C1CC(F)(F)C1 [Example T-106] | > 500 | > 500 | > 500 | < 50
10 | COC(=O)Nc1ccc2c(-c3nc(N[C@H]4CCC(C)(C)NC4)ncc3C(F)(F)F)c[nH]c2c1C(F)F [Example T-107] | > 500 | > 500 | > 500 | < 50
11 | COC(=O)Nc1ccc2c(-c3nc(N[C@H]4CCC(C)(C)NC4)ncc3C(F)(F)F)c[nH]c2c1OC(F)F [Example T-108] | > 500 | > 500 | > 500 | < 50
12 | COC(=O)Nc1ccc2c(-c3nc(N[C@H]4CCC(C)(C)NC4)ncc3C(F)(F)F)c[nH]c2c1OC(F)(F)F [Example T-109] | > 500 | > 500 | > 500 | < 50
13 | CCOC(=O)Nc1ccc2c(-c3nc(N[C@H]4CCCNC4)ncc3C(F)(F)F)c[nH]c2c1C1CC1 [Example T-127] | > 500 | > 500 | > 500 | < 50
14 | COC(=O)Nc1ccc2c(-c3nc(N[C@H]4CCC(C)NC4)ncc3C(F)(F)F)c[nH]c2c1C1CC1 (some centres unmarked) [Example T-129] | > 500 | > 500 | > 500 | 50 to 500
15 | COC(=O)Nc1ccc2c(-c3nc(N[C@H]4CC[C@@H](C)NC4)ncc3C(F)(F)F)c[nH]c2c1C1CC1 [Example T-130] | > 500 | > 500 | > 500 | 50 to 500
16 | COC(=O)Nc1ccc2c(-c3nc(N[C@H]4CC[C@H](C)NC4)ncc3C(F)(F)F)c[nH]c2c1C1CC1 [Example T-131] | > 500 | > 500 | > 500 | 50 to 500

Row | SMILES | IC50 (CDK2/Cyclin El) [nM] | IC50 (CDK9/Cyclin Tl) [nM] | IC50 [1] [nM] | IC50 [2] [nM]
17 | COC(=O)Nc1ccc2c(-c3nc(N[C@H]4CCC(C)(C)NC4)ncc3C(F)(F)F)c[nH]c2c1C(C)=O [Example T-134] | > 500 | > 500 | > 500 | < 50
18 | COC(=O)Nc1ccc2c(-c3nc(N[C@H]4CCC(C)(C)NC4)ncc3C(F)(F)F)c[nH]c2c1C(C)(F)F [Example T-136] | > 500 | > 500 | > 500 | < 50
19 | COC(=O)Nc1ccc2c(-c3nc(N[C@H]4CCC5(CC5)NC4)ncc3C(F)(F)F)c[nH]c2c1C(C)(F)F [Example T-137] | > 500 | > 500 | > 500 | < 50
20 | CCOc1c(NC(=O)OC)ccc2c(-c3nc(N[C@H]4CCCNC4)ncc3C(F)(F)F)c[nH]c12 [Example T-138] | > 500 | > 500 | > 500 | < 50
21 | COC(=O)Nc1ccc2c(-c3nc(N[C@H]4CCCNC4)ncc3C(F)(F)F)c[nH]c2c1OCC(F)(F)F [Example T-139] | > 500 | > 500 | > 500 | < 50
22 | COC(=O)Nc1ccc2c(-c3nc(N[C@H]4CC[C@@H](C)NC4)ncc3C(F)(F)F)c[nH]c2c1OC [Example T-140] | > 500 | > 500 | > 500 | 50 to 500
23 | COC(=O)Nc1ccc2c(-c3nc(N[C@H]4CC[C@@H](C)NC4)ncc3C(F)(F)F)c[nH]c2c1Br [Example T-143] | > 500 | > 500 | > 500 | 50 to 500
24 | COC(=O)Nc1ccc2c(-c3nc(N[C@H]4CC[C@@H](C)NC4)ncc3C(F)(F)F)c[nH]c2c1Cl [Example T-146] | > 500 | > 500 | > 500 | 50 to 500
25 | COC(=O)Nc1ccc2c(-c3nc(N[C@H]4CC[C@@H](C)NC4)ncc3C(F)(F)F)c[nH]c2c1C(F)(F)F [Example T-149] | > 500 | > 500 | > 500 | 50 to 500
26 | COC(=O)Nc1ccc2c(-c3nc(N[C@H]4CC[C@@H](C)NC4)ncc3C(F)(F)F)c[nH]c2c1OCC(F)(F)F [Example T-151] | > 500 | > 500 | > 500 | 50 to 500
27 | CCOC(=O)Nc1ccc2c(-c3nc(N[C@H]4CCC(C)(C)NC4)ncc3C(F)(F)F)c[nH]c2c1C(C)(F)F [Example T-153] | > 500 | > 500 | > 500 | < 50
28 | COC(=O)Nc1ccc2c(-c3nc(N[C@H]4CCC5(CC5)NC4)ncc3C(F)(F)F)c[nH]c2c1OC(F)F [Example T-154] | > 500 | > 500 | > 500 | < 50
29 | COC(=O)Nc1ccc2c(-c3nc(N[C@H]4CCCNC4)ncc3C(F)(F)F)c[nH]c2c1C(F)F [Example T-155] | > 500 | > 500 | > 500 | < 50
30 | CCOc1c(NC(=O)OC)ccc2c(-c3nc(N[C@H]4CCCN(C)C4)ncc3C(F)(F)F)c[nH]c12 [Example T-161] | > 500 | > 500 | > 500 | < 50
31 | COC(=O)N(C)c1ccc2c(-c3nc(N[C@H]4CCCNC4)ncc3C(F)(F)F)c[nH]c2c1Cl [Example T-162] | > 500 | > 500 | > 500 | < 50
32 | COC(=O)N(C)c1ccc2c(-c3nc(N[C@H]4CCCNC4)ncc3C(F)(F)F)c[nH]c2c1C(F)F [Example T-163] | > 500 | > 500 | > 500 | < 50
